Reference: PubChem BioAssay (NCI)
Where “and” joins values, the source holds several entries; their conditions need not be identical. Equal values may be shown once.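 Cells were grown in 96-well plates and exposed to each compound for 48 hours at five concentrations; endpoints were interpolated linearly between bracketing concentrations, or set to the highest concentration if not reached. Abbreviation: GI50, concentration required for 50% inhibition of growth. TGI denotes the concentration required for complete inhibition of growth.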

Key:
Assay in all cases: NCI-60 cell line screen, 48 h
786-0 renal = test system: 786-0 renal
HCT-15 colon = test system: HCT-15 colon
K-562 leukemia = test system: K-562 leukemia
MOLT-4 leukemia = test system: MOLT-4 leukemia
RXF 393 renal = test system: RXF 393 renal
SK-MEL-2 melanoma = test system: SK-MEL-2 melanoma
UACC-257 melanoma = test system: UACC-257 melanoma
LOX IMVI melanoma = test system: LOX IMVI melanoma
NCI/ADR-RES ovarian = test system: NCI/ADR-RES ovarian
HS 578T breast = test system: HS 578T breast

Row | SMILES | TGI (786-0 renal) [µM] | TGI (HCT-15 colon) [µM] | TGI (K-562 leukemia) [µM] | TGI (MOLT-4 leukemia) [µM] | TGI (RXF 393 renal) | TGI (SK-MEL-2 melanoma) [µM] | TGI (UACC-257 melanoma) [µM] | TGI (LOX IMVI melanoma) [µM] | GI50 (786-0 renal) [µM] | GI50 (HCT-15 colon) [µM] | GI50 (K-562 leukemia) [µM] | GI50 (LOX IMVI melanoma) [µM] | GI50 (MOLT-4 leukemia) [µM] | GI50 (RXF 393 renal) [µM] | GI50 (SK-MEL-2 melanoma) [µM] | GI50 (UACC-257 melanoma) [µM] | GI50 (NCI/ADR-RES ovarian) [µM] | TGI (NCI/ADR-RES ovarian) [µM] | GI50 (HS 578T breast) [µM] | TGI (HS 578T breast) [µM]
1 | CCCCCCCCCCCCCCCCCC(=O)OCC(C[As](=O)(O)O)OC(=O)CCCCCCCCCCCCCCCCC (stereo not given) | > 100 | > 100 | > 100 | > 100 | 47 µM | > 100 | > 100 |  |  |  |  |  |  |  |  |  |  |  |  | 
2 | NC(=O)Nc1c([N+](=O)[O-])cc(C(F)(F)F)cc1[N+](=O)[O-] | > 100 | > 100 | > 100 | > 100 | > 100 µM | > 100 | > 100 | > 100 |  |  |  |  |  |  |  |  |  |  |  | 
3 | CC1=NC(C(C)C)C(=O)O1 (stereo not given) | > 100 | > 100 | > 100 | > 100 |  |  | > 100 |  |  |  |  |  |  |  |  |  |  |  |  | 
4 | CN(C)C1=NC2=S(SC(Nc3ccccc3)=N2)S1 (stereo not given) | > 100 | > 100 | > 100 | > 100 | > 100 µM | > 100 | 70.8 | > 100 |  |  |  |  |  |  |  |  |  |  |  | 
5 | c1ccc(CN2CCCCC(Sc3ccccc3)CC2)cc1 (stereo not given) | 31.6 | 33.5 | 35 | 50.7 |  | 90.5 | > 100 | 30.6 |  |  |  |  |  |  |  |  |  |  |  | 
6 | CCC[CH2][Sn]1([CH2]CCC)[O]CC(CN2CCOCC2)[O]1 (stereo not given) | 7.39 | 18.6 | 9.16 | 7.88 | 3.31 µM | 3.66 | 15.1 | 5.7 | 2.63 | 6.4 | 2.43 | 2.02 | 2.22 | 1.65 | 1.53 | 4.29 |  |  |  | 
7 | COC(=O)C1=C(c2ccc3c(c2)OCO3)OC(c2ccc3c(c2)OCO3)C1 (stereo not given) | > 100 | > 100 | > 100 | > 100 | > 100 µM | > 100 | > 100 | > 100 |  |  |  |  |  |  |  |  |  |  |  | 
8 | COC(=O)C1=C(CS(=O)c2ccc([N+](=O)[O-])cc2[N+](=O)[O-])ON(C)C1c1ccccc1 (stereo not given) | > 100 | > 78.9 | 34.5 | 48.5 | > 80.7 µM | > 100 | > 100 | 35 |  |  |  |  |  |  |  |  |  |  |  | 
9 | CCCCCNC(=O)c1c(O)[nH]c(=S)[nH]c1=O | > 100 | > 100 | > 100 | > 100 |  | > 100 | > 100 | > 100 |  |  |  |  |  |  |  |  |  |  |  | 
10 | O=C1OC(c2ccccc2)=N/C1=C\c1cc(Cl)ccc1Cl | > 100 | 82.9 | > 100 | 53.7 | > 100 µM | > 100 | > 100 |  |  |  |  |  |  |  |  |  |  |  |  | 
11 | CCN(CC)CCCC(Cc1ccccc1)Nc1c2ccc(Cl)cc2nc2ccc(OC)cc12 (stereo not given) | 3.34 | 4.72 | 2.89 | 5.7 | 3.35 µM | 3.46 | 3.44 | 3.04 | 1.4 | 1.88 | 1.07 | 1.6 | 1.91 | 1.63 | 1.79 | 1.89 | 3.02 | 10.4 |  | 
12 | NC(=O)CCC(NC(=O)Cc1ccccc1)C(=O)O (stereo not given) (tested in a mixture with another compound) | > 8130 | > 2470 | > 8130 | > 8130 | 2030 µM and > 8130 µM | > 8130 |  |  |  |  |  |  |  |  |  |  |  |  |  | 
13 | O=C1c2cc([N+](=O)[O-])cc3cc([N+](=O)[O-])cc(c23)C(=O)N1CCCNCCNCCCN1C(=O)c2cc([N+](=O)[O-])cc3cc([N+](=O)[O-])cc(c23)C1=O | 3.35 | > 30.6 | 14.9 | 1.41 | 0.375 µM | 0.323 | 2.52 |  |  |  |  |  |  |  |  |  |  | > 100 |  | 
14 | COC(=O)CS(=O)c1ccccc1 (stereo not given) | 72.4 | > 100 | > 100 | 41.4 | 49.2 µM | > 100 | > 100 | 44.4 |  |  |  |  |  |  |  |  |  |  |  | 
15 | Cc1ccc(-c2nc(N)c(C#N)c3c2CCOc2c-3ccc3ccccc23)cc1 | 12.7 |  | > 40.8 | > 100 | 6.29 µM |  | > 100 |  | 0.363 | 0.0543 | 0.0614 |  | 0.42 | 0.266 |  | 0.474 | 0.331 | 31.5 | 0.227 | 1.51
16 | O=C(c1nc2ccc(Cl)cc2[nH]c1=O)C(O)c1ccc2c(c1)OCO2 (stereo not given) | > 100 |  | > 100 | > 100 | > 100 µM | > 100 | > 100 | > 100 |  |  |  |  |  |  |  |  |  |  |  | 
17 | CC(=O)c1ccc(NC(=O)C(=O)C(C(=O)c2ccc(Cl)c(Cl)c2)C2OC(=O)c3ccccc32)cc1 (stereo not given) | 33.8 | 34.7 | > 100 | > 100 | 17.4 µM |  | > 100 | 32.6 |  |  |  |  |  |  |  |  |  |  |  | 
